Source: US20100196308A1, “VITAMIN D3 AND ANALOGS THEREOF FOR ALLEVIATING SIDE EFFECTS ASSOCIATED WITH CHEMOTHERAPY” (priority 2009, published 2010)

Experiments:
[1] = system: Peripheral circulating progenitor stem cells; test: Colony formation assay in semi-solid agar medium with GM-CSF and G-CSF; assay type: cell-based, human; details: Group 2: 0.05 μg/mL 1,25(OH)2D3 for 24 hours, no 4-HC; mean ± SD, quadruplicates
From the text: Tissue culture grade agar, fetal calf serum (FCS), and powdered Dulbecco's Modified Eagle's Medium (DMEM) were obtained from Invitrogen (Carlsbad, Calif.). Peripheral circulating progenitor stem cells were obtained by venipuncture of the saphenous vein of a healthy donor into sodium heparin vacutainers (Becton, Dickinson and Company, Franklyn Lakes N.J.). The buffy coat was obtained by gradient centrifugation using histopaque 1077 as per manufacturer's instructions. Cells were washed twice with RMPI 1640 supplemented with 10% fetal calf serum (Invitrogen). […] Cells were cultured for 14 days in a 5% CO2 incubator, with 100% humidity at 37° C. At the end of the culture period, colonies (clusters of 50 or more cells) were counted using an inverted microscope by two independent viewers. Peripheral stem cells were randomized into 4 groups at a concentration of 5×10^5 cells/mL in DMEM supplemented with 10% fetal calf serum. Group 1 was an untreated control, group 2 was incubated for 24 hours with 0.05 μg/mL of 1,25(OH)2D3, group 3 was incubated for 24 hours with 0.05 μg/mL of 1,25(OH)2D3, group 4 was untreated. Cells were washed with DMEM 10% fetal calf serum. Groups 3 and 4 were then incubated with 25 μg/mL of 4-HC for 20 hours. Subsequently, all groups were washed twice as previously described. Cells were then plated in semi-solid agar medium as described above.

[2] = Viability of myeloid cells by trypan blue exclusion; assay type: cell-based; details: human, 24-hour exposure, RPMI 1640 with 10% fetal calf serum (FIG. 2)
Experimental: Varying doses of 1,25(OH)2D3 were applied to the myeloid cells. A graph of the effects of 1,25(OH)2D3 on myeloid cells is provided as FIG. 2. The viability of the myeloid cells was determined by trypan blue exclusion after a 24-hour exposure to varying doses of 1,25(OH)2D3. For these experiments, 2.5×10^5 cells/mL were incubated with different doses of 1,25(OH)2D3 (0.01 μg/mL, 0.1 μg/mL, 0.5 μg/mL, 0.75 μg/mL, 1 μg/mL, and 10 μg/mL) for 24 hours in RPMI 1640 supplemented with 10% fetal calf serum.

[3] = system: Long Evans rats injected with MIAC51; test: Absolute neutrophil counts in chloroleukemic rats under chemotherapy regimens; details: for Nadir ANC without calcitriol treatment: chemotherapy + vehicle
Experimental: For the first cycle of experiments, 15-day old Long Evans rats were injected with MIAC51. […] Starting on day 20 through 32, complete granulocyte counts were then performed by puncturing the tail vein with a 27 gauge syringe while animals were manually restrained.
Neutrophil counts were measured by puncturing the tail vein as described above. […] On day 52, rats were randomized into 3 groups for each chemotherapy regimen.

bone marrow progenitors = test: Bone marrow cultures (colony counts) from chemotherapy-treated chloroleukemic rats
Experimental: To assay the Colony-Forming Activity of bone marrow progenitors and MIAC51 cells, bone marrow cells are obtained as previously described (Jimenez and Yunis, 1988), and are washed with serum free DMEM. Cells are then suspended to a concentration of 1×10^6/mL and layered onto a gradient for centrifugation for 40 minutes at 400 g. The pellet found between the medium and gradient is then carefully aspirated and washed in serum free DMEM two times. Finally, a cell suspension containing 1×10^5 cells/mL is prepared in DMEM supplemented with 10% fetal bovine serum, and incubated in tissue culture plates for 3 hours. The non-adherent cells are aspirated and transferred to semi-solid agar culture plates.
To prepare semi-solid agar medium, powdered MEM is reconstituted in tissue-culture grade water to a concentration of 2×. Agar (0.3%) is then added and the mixture is boiled until the agar is fully dissolved (Perkins and Yunis, 1986). The medium is cooled to 37° C. and essential amino acids which might have been depleted during the boiling process are then added. The semi-solid medium is then distributed onto multi-well clusters, filling one well with tissue culture grade water to avoid further evaporation. At this point, G- or GM-CSF are added following manufacturer's procedure, and the bone marrow cell suspension or MIAC51 cells are added by careful pipetting in order to avoid bubbles. Colonies are counted 7 days later.
Bone marrow cultures were performed on days 22, 25 and 32. On day 32, a complete leukocyte count was performed in all animals and those who were positive for MIAC51 were sacrificed.

[4] = Calcium levels in chemotherapy-treated chloroleukemic rats
From the text: On days 22, 26, 49 and 53, blood from 3 animals is collected by cardiac puncture. All blood samples are collected in a vial for analysis of calcium levels. All animals used for bone marrow cultures are anesthetized and exsanguinated prior to obtaining the bone marrow.

MIAC51 = details: stated in the power analysis of Example 2
Experimental: Sprague Dawley rats (10-day old rat pups, preferably of natural litters) are used in this study. […] Thus, in rats the onset of neutropenia as judged by the nadir of ANC has been well characterized.
To obtain a power of 0.8 and a=0.05 with an absolute difference of 20%, 36 animals per group may be needed. […] According to power analysis, the minimum sample size to achieve statistical significance is 36 animals. Therefore, 4 more animals are added to each group to account for model attrition rate of 10%.

In the case of `C=C1/C(=C\C=C2/CCC[C@]3(C)[C@@H]([C@H](C)CCCC(C)(C)O)CC[C@@H]23)C[C@@H](O)C[C@@H]1O` [calcitriol, 1,25-dihydroxyvitamin D3], the “Colony Counts at 14 Days” value [1] was 48 ± 6, the viability at 24 h, 0.05 μg/mL [2] was 90% and the “Nadir ANC with calcitriol treatment” value ([3]; first cycle, 10 μg calcitriol pulse, cyclophosphamide (150 mg/kg) regimen) was 2154 ± 147/mm^3. For the same compound, the “Nadir ANC with calcitriol treatment” value ([3]; first cycle, 10 μg calcitriol pulse, cyclophosphamide and doxorubicin (100 mg/kg, 25 mg/kg) regimen) was 2365 ± 145/mm^3, the “Nadir ANC with calcitriol treatment” value ([3]; first cycle, 10 μg calcitriol pulse, cyclophosphamide, doxorubicin and paclitaxel (100, 25, 10 mg/kg) regimen) was 2365 ± 125/mm^3 and the “effect on nadir ANC” value ([3]; first cycle, all three chemotherapy regimens) was “significantly decreases the nadir ANC”. For the same compound, the “Nadir ANC with calcitriol treatment” value ([3]; second cycle, 20 μg calcitriol, cyclophosphamide and doxorubicin regimen) was 2417 ± 136/mm^3, the “Nadir ANC with calcitriol treatment” value ([3]; second cycle, 20 μg calcitriol, cyclophosphamide regimen) was 2451 ± 235/mm^3 and the “Nadir ANC with calcitriol treatment” value ([3]; second cycle, 20 μg calcitriol, cyclophosphamide, doxorubicin and paclitaxel regimen) was 2364 ± 136/mm^3. For the same compound, the “protection against chemotherapy-induced neutropenia” value ([3]; second cycle, all three chemotherapy regimens) was “significantly protects against chemotherapy-induced neutropenia in all three chemotherapy regimens”, the “colony count of bone marrow cultures” value (bone marrow progenitors; day 22, first cycle, cyclophosphamide and calcitriol (FIG. 4a)) was 56±17 colonies and the “colony count of bone marrow cultures” value (bone marrow progenitors; day 25, first cycle, cyclophosphamide and calcitriol (FIG. 5a)) was 80±15 colonies. For the same compound, the “colony count of bone marrow cultures” value (bone marrow progenitors; day 40 (so in the source), second cycle, cyclophosphamide and calcitriol) was 82±25 colonies, the “colony count of bone marrow cultures” value (bone marrow progenitors; day 52, second cycle, cyclophosphamide and calcitriol) was 86±25 colonies and the hypercalcemia ([4]; rat, in vivo) was “did not induce hypercalcemia”.
With Cyclophosphamide the “Nadir ANC without calcitriol treatment” value ([3]; first cycle) was 245 ± 25/mm^3, the “Nadir ANC without calcitriol treatment” value ([3]; second cycle) was 236 ± 32/mm^3 and the “colony count of bone marrow cultures” value (bone marrow progenitors; day 22, first cycle, cyclophosphamide and vehicle) was 5±1 colonies. The “colony count of bone marrow cultures” value (bone marrow progenitors; day 25, first cycle, cyclophosphamide and vehicle) was 12±4 colonies, the “colony count of bone marrow cultures” value (bone marrow progenitors; day 40 (so in the source), second cycle, cyclophosphamide and vehicle) was 4.5±1 colonies and the “colony count of bone marrow cultures” value (bone marrow progenitors; day 52, second cycle, cyclophosphamide-treated) was 7±2.5 colonies. For the same compound, the “Calcium Levels” value ([4]; Day 22, Chemo + Vehicle) was 11 ± 0.3 mg/dL, the “Calcium Levels” value ([4]; Day 25, Chemo + Vehicle) was 9.5 ± 0.2 mg/dL and the “Calcium Levels” value ([4]; Day 32, Chemo + Vehicle) was 9.5 ± 0.5 mg/dL. For the same compound, the “Calcium Levels” value ([4]; Day 49, Chemo + Vehicle) was 11 ± 0.2 mg/dL, the “Calcium Levels” value ([4]; Day 52, Chemo + Vehicle) was 10 ± 0.5 mg/dL and the “Calcium Levels” value ([4]; Day 60, Chemo + Vehicle) was 11 ± 0.4 mg/dL. For the same compound, the Remission rate (MIAC51) was “at least 20%”.
